In series [1] the target is CYP2E1 (Homo sapiens, UniProt P05181). As to the kind of experiment: Inhibition of CYP2E1 in human liver microsomes at 20 uM using chlorzoxazone as substrate incubated for 60 mins by HPLC analysis relative to control. Format: ADME. The conditions noted are these: probe chlorzoxazone.
Series [2] has as its target CYP2D6 (Homo sapiens, UniProt P10635). As to the kind of experiment: Inhibition of CYP2D6 in human liver microsomes at 20 uM using dextromethorphan as substrate incubated for 60 mins by HPLC analysis relative to control. The conditions noted are these: probe dextromethorphan. Format: ADME. For orientation: Liver microsomes are vesicles of endoplasmic reticulum, rich in cytochrome P450 enzymes.

Series [3] deals with Prostaglandin E2 receptor EP4 subtype (Mus musculus, UniProt P32240). Briefly: Antagonist activity at mouse EP4 expressed in CHO cells coexpressing G16-alpha assessed as intracellular calcium flux preincubated for 15 mins followed by addition of PGE2 by calcium flux assay. Format: functional, cell-based. In general terms: A change in cytosolic calcium serves as a functional read-out for many receptors and channels.

Series [4] deals with T1, Prostaglandin E2 receptor EP1 subtype (Homo sapiens, UniProt P34995).
T1 sequence (P34995 whole entry): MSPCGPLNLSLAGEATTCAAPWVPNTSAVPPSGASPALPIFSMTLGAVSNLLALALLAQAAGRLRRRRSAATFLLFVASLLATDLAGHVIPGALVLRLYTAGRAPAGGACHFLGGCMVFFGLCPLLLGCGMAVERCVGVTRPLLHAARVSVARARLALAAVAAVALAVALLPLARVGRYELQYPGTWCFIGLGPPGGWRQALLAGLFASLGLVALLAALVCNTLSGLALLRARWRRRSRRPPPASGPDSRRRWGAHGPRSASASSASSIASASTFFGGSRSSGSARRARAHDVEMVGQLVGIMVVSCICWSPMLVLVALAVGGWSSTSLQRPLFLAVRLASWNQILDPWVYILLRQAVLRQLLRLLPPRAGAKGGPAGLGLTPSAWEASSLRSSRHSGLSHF
Briefly: Antagonist activity at human EP1 expressed in CHO cells coexpressing G16-alpha assessed as intracellular calcium flux preincubated for 15 mins followed by addition of PGE2 by calcium flux assay. Format: functional, cell-based.

The nature of series [5]: Metabolic stability in human liver microsomes assessed as compound remaining at 10 uM incubated for 1 hr.
Series [6] can be described thus: Metabolic stability in CD1 mouse liver microsomes assessed as compound remaining at 10 uM incubated for 1 hr.
Series [7] concerns the target T2, CYP1A2 (Homo sapiens, UniProt P05177).
T2 sequence (P05177 whole entry): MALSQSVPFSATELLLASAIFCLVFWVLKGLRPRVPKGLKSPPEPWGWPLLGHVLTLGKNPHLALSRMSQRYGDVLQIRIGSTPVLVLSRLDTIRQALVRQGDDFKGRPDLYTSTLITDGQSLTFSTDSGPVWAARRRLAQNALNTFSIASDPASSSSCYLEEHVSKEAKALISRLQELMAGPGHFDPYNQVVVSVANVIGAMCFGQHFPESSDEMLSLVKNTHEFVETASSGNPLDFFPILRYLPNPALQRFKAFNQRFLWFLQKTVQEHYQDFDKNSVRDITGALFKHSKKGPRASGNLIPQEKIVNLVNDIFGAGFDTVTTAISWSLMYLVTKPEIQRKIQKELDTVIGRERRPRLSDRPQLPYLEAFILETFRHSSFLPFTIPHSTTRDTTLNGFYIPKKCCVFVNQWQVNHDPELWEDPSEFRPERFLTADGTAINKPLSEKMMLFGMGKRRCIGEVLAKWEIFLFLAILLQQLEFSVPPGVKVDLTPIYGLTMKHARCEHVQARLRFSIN
Briefly: Inhibition of CYP1A2 in human liver microsomes at 20 uM using phenacetin as substrate incubated for 30 mins by HPLC analysis relative to control. Format: ADME. Conditions: probe phenacetin; call rule not given here.

Series [8] has as its target T3, CYP2B6 (Homo sapiens, UniProt P20813).
T3 sequence (P20813 whole entry): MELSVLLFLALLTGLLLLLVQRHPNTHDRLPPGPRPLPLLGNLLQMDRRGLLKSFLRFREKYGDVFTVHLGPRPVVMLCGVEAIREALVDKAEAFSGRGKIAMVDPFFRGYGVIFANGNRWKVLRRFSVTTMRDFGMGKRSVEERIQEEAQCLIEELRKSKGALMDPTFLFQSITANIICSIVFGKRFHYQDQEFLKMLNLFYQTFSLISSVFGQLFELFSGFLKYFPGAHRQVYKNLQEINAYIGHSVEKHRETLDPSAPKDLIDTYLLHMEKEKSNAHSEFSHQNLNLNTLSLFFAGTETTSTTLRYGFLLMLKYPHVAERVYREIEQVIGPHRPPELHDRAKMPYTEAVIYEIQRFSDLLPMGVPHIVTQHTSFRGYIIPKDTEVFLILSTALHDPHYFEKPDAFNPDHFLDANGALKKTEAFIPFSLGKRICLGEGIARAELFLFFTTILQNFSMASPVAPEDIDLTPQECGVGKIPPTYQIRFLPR
Briefly: Inhibition of CYP2B6 in human liver microsomes at 20 uM incubated for 60 mins by HPLC analysis relative to control. Format: ADME.

Series [9] concerns the target CYP2C9 (Homo sapiens, UniProt P11712). Briefly: Inhibition of CYP2C9 in human liver microsomes at 20 uM using tolbutamide as substrate incubated for 60 mins by HPLC analysis relative to control. Format: ADME. The conditions noted are these: probe tolbutamide.
In series [10] the target is Cytochrome P450 3A4 (Homo sapiens, UniProt P08684). As to the kind of experiment: Inhibition of CYP3A4 in human liver microsomes at 20 uM using testosterone as substrate incubated for 60 mins by HPLC analysis. Format: ADME. Conditions: 1 h.
The nature of series [11]: Volume of distribution at steady state in BALB/c mouse at 1 mg/kg, iv measured upto 24 hrs by LC-MS/MS analysis. The conditions noted are these: in vivo.
Series [12] is described as follows: Apparent volume of distribution in BALB/c mouse at 1 mg/kg, iv measured upto 24 hrs by LC-MS/MS analysis. Conditions: in vivo.
The nature of series [13]: Clearance in BALB/c mouse at 1 mg/kg, iv measured upto 24 hrs by LC-MS/MS analysis. Conditions: in vivo.
Series [14] can be described thus: Half life in BALB/c mouse at 1 mg/kg, iv measured upto 24 hrs by LC-MS/MS analysis. The conditions noted are these: in vivo.
Series [15] is described as follows: Half life in BALB/c mouse at 5 mg/kg, po measured upto 24 hrs by LC-MS/MS analysis. The conditions noted are these: in vivo.
Series [16] has as its target Prostaglandin E2 receptor EP4 subtype (Homo sapiens, UniProt P35408).
Description: Antagonist activity at human EP4 expressed in CHO cells coexpressing G16-alpha assessed as intracellular calcium flux preincubated for 15 mins followed by addition of PGE2 by calcium flux assay
Series [17] addresses Prostaglandin E2 receptor EP2 subtype (Homo sapiens, UniProt P43116).
Description: Antagonist activity at human EP2 expressed in CHO cells coexpressing G16-alpha assessed as intracellular calcium flux preincubated for 15 mins followed by addition of PGE2 by calcium flux assay
The target in series [18] is T4, Prostaglandin E2 receptor EP3 subtype (Homo sapiens, UniProt P43115).
T4 sequence (P43115 whole entry): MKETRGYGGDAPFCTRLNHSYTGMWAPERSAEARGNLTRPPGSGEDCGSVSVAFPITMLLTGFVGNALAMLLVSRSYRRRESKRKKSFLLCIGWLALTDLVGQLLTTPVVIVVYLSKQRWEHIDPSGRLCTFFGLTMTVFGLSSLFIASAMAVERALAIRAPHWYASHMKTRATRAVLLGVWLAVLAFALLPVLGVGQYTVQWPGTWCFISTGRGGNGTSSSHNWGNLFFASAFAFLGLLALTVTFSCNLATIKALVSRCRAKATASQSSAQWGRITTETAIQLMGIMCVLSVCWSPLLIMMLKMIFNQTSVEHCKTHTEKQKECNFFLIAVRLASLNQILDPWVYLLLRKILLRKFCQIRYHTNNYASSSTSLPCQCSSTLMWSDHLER
Description: Antagonist activity at human EP3 expressed in CHO cells coexpressing G16-alpha assessed as intracellular calcium flux preincubated for 15 mins followed by addition of PGE2 by calcium flux assay

A short description of series [19]: in vivo. Conditions: BALB/c, mouse, iv, 1 mg/kg.
A short description of series [20]: in vivo. The conditions noted are these: BALB/c, mouse, iv, 1 mg/kg. The source holds these as a separate data set.
Series [21] is described as follows: in vivo. Conditions: BALB/c, mouse, po, 5 mg/kg.
Description: Cmax in BALB/c mouse at 5 mg/kg, po measured upto 24 hrs by LC-MS/MS analysis
A short description of series [22]: in vivo. The conditions noted are these: BALB/c, mouse, po, 5 mg/kg. The source holds these as a separate data set.
Description: AUC (0 to infinity) in BALB/c mouse at 5 mg/kg, po measured upto 24 hrs by LC-MS/MS analysis
A short description of series [23]: in vivo. Conditions: BALB/c, mouse, po, 5 mg/kg. This is another data set of the same source.
Description: Oral bioavailability in BALB/c mouse at 5 mg/kg measured upto 24 hrs by LC-MS/MS analysis
Series [24] is described as follows: in vitro. The conditions noted are these: human, liver microsomes.
Series [25] is described as follows: in vitro. The conditions noted are these: human, liver microsomes. The source holds these as a separate data set.
The nature of series [26]: in vitro. Conditions: CD1, mouse, liver microsomes.
Series [27] in a line: in vitro. The conditions noted are these: CD1, mouse, liver microsomes. The source holds these as a separate data set.
Series [28] relates to CT26. Briefly: Antitumor activity against mouse CT26 cells xenografted in BALB/c mouse assessed as tumor growth inhibition at 150 mg/kg, po administerd daily and measured after two weeks. The conditions noted are these: 336 h, read-out: TGI.

Sequence of CYP2D6 (P10635 whole entry): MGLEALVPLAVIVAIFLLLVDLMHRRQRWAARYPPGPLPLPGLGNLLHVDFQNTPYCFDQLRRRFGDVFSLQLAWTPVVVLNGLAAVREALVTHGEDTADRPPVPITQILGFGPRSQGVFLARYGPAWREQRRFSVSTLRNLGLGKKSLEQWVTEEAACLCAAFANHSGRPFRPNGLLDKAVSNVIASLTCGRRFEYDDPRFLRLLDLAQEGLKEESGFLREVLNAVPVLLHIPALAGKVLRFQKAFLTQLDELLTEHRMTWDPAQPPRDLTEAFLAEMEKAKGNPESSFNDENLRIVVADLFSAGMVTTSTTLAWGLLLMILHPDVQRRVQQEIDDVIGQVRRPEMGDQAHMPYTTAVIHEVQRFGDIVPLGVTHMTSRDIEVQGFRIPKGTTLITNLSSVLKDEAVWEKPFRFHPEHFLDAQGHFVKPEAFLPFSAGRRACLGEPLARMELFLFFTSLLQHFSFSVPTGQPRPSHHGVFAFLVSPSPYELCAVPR
Sequence of Prostaglandin E2 receptor EP4 subtype (Mus musculus, UniProt P32240) (P32240 whole entry): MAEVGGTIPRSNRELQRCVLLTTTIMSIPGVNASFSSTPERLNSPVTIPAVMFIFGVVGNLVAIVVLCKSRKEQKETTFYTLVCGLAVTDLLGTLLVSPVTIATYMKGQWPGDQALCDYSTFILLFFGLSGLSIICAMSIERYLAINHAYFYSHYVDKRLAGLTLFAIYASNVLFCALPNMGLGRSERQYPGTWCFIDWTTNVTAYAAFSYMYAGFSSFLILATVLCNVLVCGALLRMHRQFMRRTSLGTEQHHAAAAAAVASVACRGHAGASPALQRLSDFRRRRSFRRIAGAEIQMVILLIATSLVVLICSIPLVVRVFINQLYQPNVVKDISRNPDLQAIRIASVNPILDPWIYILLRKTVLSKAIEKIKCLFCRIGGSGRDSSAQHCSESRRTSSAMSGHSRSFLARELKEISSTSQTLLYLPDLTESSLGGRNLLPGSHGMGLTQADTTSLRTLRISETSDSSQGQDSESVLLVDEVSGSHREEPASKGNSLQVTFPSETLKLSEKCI
Sequence of CYP2E1 (P05181 whole entry): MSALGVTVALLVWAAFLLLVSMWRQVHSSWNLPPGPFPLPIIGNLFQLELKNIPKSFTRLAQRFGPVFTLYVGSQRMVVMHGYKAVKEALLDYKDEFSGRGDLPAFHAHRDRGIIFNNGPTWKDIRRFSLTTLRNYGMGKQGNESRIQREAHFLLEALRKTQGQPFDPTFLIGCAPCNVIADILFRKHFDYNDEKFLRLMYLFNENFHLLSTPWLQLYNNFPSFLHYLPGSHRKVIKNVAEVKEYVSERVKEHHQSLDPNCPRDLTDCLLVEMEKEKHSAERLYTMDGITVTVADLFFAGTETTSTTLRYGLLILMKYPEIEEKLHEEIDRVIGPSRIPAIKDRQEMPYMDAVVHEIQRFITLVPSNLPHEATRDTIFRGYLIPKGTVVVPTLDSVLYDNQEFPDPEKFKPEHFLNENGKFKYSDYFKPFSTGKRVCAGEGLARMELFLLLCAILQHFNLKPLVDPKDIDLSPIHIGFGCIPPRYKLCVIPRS
Sequence of CYP2C9 (P11712 whole entry): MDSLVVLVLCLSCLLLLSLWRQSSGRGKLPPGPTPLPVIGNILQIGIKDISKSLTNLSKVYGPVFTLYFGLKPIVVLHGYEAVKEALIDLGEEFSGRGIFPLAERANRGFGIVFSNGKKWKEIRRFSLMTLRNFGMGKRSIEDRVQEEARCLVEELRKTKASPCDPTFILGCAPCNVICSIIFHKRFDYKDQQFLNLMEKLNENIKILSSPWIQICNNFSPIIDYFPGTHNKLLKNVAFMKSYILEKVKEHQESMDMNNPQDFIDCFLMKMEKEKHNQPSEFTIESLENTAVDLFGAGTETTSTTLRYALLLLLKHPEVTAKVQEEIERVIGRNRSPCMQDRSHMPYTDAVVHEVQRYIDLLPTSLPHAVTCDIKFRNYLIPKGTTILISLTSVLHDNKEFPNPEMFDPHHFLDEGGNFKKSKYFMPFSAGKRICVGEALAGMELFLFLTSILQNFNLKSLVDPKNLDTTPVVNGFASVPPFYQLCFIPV
Sequence of Cytochrome P450 3A4 (P08684 whole entry): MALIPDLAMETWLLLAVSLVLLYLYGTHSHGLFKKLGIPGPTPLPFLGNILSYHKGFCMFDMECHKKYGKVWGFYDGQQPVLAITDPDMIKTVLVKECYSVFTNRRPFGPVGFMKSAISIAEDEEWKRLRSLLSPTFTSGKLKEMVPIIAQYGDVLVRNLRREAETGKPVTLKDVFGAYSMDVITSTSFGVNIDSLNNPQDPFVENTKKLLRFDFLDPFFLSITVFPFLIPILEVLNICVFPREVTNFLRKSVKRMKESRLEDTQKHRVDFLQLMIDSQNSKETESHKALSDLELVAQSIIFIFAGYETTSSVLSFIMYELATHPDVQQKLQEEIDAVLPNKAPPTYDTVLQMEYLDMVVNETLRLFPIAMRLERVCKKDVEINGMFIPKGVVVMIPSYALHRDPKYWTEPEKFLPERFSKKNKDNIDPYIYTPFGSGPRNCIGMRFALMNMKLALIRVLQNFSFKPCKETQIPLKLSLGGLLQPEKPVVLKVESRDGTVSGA
Sequence of Prostaglandin E2 receptor EP2 subtype (P43116 whole entry): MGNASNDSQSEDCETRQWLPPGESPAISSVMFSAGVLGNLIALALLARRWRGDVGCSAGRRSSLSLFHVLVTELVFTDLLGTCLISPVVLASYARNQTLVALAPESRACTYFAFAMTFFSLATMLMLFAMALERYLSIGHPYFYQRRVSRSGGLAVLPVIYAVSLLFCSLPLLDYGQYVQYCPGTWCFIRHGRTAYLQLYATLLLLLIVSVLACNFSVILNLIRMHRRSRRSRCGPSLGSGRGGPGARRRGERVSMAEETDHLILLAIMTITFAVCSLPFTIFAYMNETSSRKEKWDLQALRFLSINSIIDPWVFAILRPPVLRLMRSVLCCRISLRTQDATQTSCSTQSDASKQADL
Sequence of Prostaglandin E2 receptor EP4 subtype (Homo sapiens, UniProt P35408) (P35408 whole entry): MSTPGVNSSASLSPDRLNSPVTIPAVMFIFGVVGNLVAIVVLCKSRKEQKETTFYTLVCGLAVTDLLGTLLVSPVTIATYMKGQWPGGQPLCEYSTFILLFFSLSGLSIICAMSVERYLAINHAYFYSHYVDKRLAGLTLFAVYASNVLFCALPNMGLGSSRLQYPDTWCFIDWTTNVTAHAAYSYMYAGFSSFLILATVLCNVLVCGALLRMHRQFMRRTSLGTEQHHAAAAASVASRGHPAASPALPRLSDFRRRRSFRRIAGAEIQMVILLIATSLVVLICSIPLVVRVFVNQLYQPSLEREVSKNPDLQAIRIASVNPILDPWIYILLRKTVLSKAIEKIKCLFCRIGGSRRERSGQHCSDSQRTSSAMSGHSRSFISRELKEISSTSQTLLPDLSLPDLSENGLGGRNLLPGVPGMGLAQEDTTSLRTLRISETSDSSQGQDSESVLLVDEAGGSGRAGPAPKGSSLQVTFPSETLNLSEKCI

Usually inhibition stands for the share of the control response that was lost under treatment. A higher inhibition goes with a strong effect. By IC50 is commonly meant the point on the concentration scale where inhibition reaches its midpoint. Broadly, the clearance is the volume of plasma or blood freed of the substance per unit of time. A low value points to inefficient removal. Broadly, the half-life is the time in which the quantity being followed falls by half. The low end stands for rapid decline, the high end for slow decline. The term Cmax denotes the peak of the concentration-time curve. As a reminder, the AUC(0-inf) is the area under the concentration-time curve extrapolated to infinity. Low values mean low exposure, high ones high exposure. As a reminder, the bioavailability is the share of a dose that reaches the circulation, judged against a reference dose that is usually intravenous. A high value points to good availability. As usually defined, the microsomal CLint is the capacity of the preparation to metabolise the compound, expressed as a volume cleared per time. Lower therefore signals greater metabolic stability. With `C[C@H](NC(=O)c1c(-c2ccsc2)nnn1Cc1ccc(C(F)(F)F)cc1)c1ccc(C(=O)O)cc1`, the inhibition at 1 h, 20 µM in series [1] was found to be 63%; in [2], 25%; in [8], 28%; in series [9], 48%. The IC50 in [3] is 27.5 nM; in [4], greater than 10000 nM; in [16], 12.9 nM; in series [17], greater than 10000 nM; in [18], greater than 10000 nM. Also, the fraction remaining at 1 h, 10 µM came to 106% in [5] and 75.5% in series [6]. Besides, in series [7], the inhibition at 0.5 h, 20 µM was 21%. The “inhibition (INH)” value in [10] is given as “Not Active”. The Vd at 24 h was found to be 4 L/kg in series [11] and 14.5 L/kg in [12]. Also, the clearance at 24 h in series [13] is 50 mL/min/kg. Moreover, the half-life at 24 h in series [14] was 3.3 h; in series [15], 4.6 h. Also, the Cmax at 24 h in series [19] was found to be 808 ng/mL; in series [21], 365 ng/mL. Further, the AUC(0-inf) at 24 h turned out to be 332 ng·h/mL in series [20] and 654 ng·h/mL in series [22]. Besides, in series [23], the bioavailability at 24 h was 40.9%. Besides, the half-life at 1 h, 10 µM in [24] and in series [26] was greater than 2.42 h each time. For the same compound, the microsomal CLint at 1 h, 10 µM in [25] and in [27] was less than 9.6 µL/min/mg in each case.

`C[C@H](NC(=O)c1c(C(F)F)nn(C)c1Oc1cccc(C(F)(F)F)c1)c1ccc(C(=O)O)cc1` [PALUPIPRANT]: the inhibition at 1 h, 20 µM in series [1] was found to be 79%; in [2], 35%; in [8], 23%; in series [9], 67%. For the same compound, the IC50 in series [3] came to 181 nM. Further, the inhibition at 0.5 h, 20 µM in series [7] was found to be 41%. Moreover, the “inhibition (INH)” value in series [10] is given as “Not Active”. In addition, the inhibition in vivo at 150 mg/kg in series [28] stood at 43.2%.

For `C[C@]12CC[C@H]3[C@@H](CCC4=CC(=O)CC[C@@]43C)[C@@H]1CC[C@@H]2O` [TESTOSTERONE], the results for the half-life at 1 h, 10 µM in series [24] and in series [26] were 0.323 h and 0.0483 h, respectively. The microsomal CLint at 1 h, 10 µM in series [25] turned out to be 71.3 µL/min/mg; in [27] it was 479 µL/min/mg.

These data come from ChEMBL document CHEMBL4376865, “Discovery and Characterization of 1H-1,2,3-Triazole Derivatives as Novel Prostanoid EP4 Receptor Antagonists for Cancer Immunotherapy” (J Med Chem, 2020).
